Reference: patent publication US20070134725A1, “METHOD TO PREDICT RISK OF BPH PROGRESSION” (Baylor College of Medicine, priority 2004, published 2007)

Key:
male subjects with BPH [1] = experiment: Phase III placebo-controlled studies of dutasteride in men with BPH (ARIA 3001, 3002, 3003); Cox regression nomogram for AUR/SI within 2 years; assay type: in vivo, human
Source text: The use of single parameters to predict the risk of BPH progression or to determine the relative reduction potentially gained with 5ARI therapy is not optimal. Nomograms are prediction tools optimized for accuracy that utilize multiple parameters to predict specific outcomes. The objective of this study was to develop a prediction model, or nomogram, that would predict the probability that a person with BPH would experience AUR or require surgical intervention (SI) within two years, using data from the recently completed Phase III studies of dutasteride versus placebo in men with BPH (Roehrborn et al. 2002).
Data from three two-year multicenter, placebo-controlled, double-blind studies evaluating dutasteride 0.5 mg/day (n=2,167) or placebo (n=2,158) in male subjects with BPH were utilized to develop a nomogram. […] Most of the 4,325 subjects randomly assigned to receive either dutasteride or placebo completed 2 years of treatment (70% and 67%, respectively).
Subjects were characterized at baseline by a number of parameters, including AUA symptom index (AUA-SI) score, BPH impact index (BII) score, prostate volume, prostate specific antigen (PSA) level, maximum urinary flow rate (Qmax), and prior use of selective α1 blockers. Cox proportional hazards regression was used to relate these baseline variables to the future probability of developing AUR or requiring surgical intervention within 2 years. The nomogram was internally validated with bootstrapping, a re-sampling technique, to assess its discrimination and calibration. Discrimination was quantified as the concordance index, which is rated from 0.5 to 1.00. Calibration was assessed visually, by plotting observed proportions against predicted probabilities, again using bootstrapping to reduce over-fit bias.
With these benefits in mind, a nomogram was constructed to predict the risk of BPH progression using data from a phase III pivotal trial (ARIA 3001, 3002, 3003) used to establish the safety and efficacy of dutasteride prior to FDA approval. For each individual predictive parameter, points are awarded by drawing a perpendicular line to the point scale along the top of the nomogram. After all points are added, a perpendicular line is drawn from the bottom, total points scale to the line below, indicating the 2 year probability of a patient's developing retention or requiring BPH-related surgery within two years. Note that the use of dutasteride (versus placebo) leads to a total point score reduced by approximately 20 to 25 points, which translates to a 50% relative risk reduction across the entire range of total points for any patient. […] Thus, a 50% relative risk reduction over two years translates into about 13 to 14% absolute risk reduction over this very short time frame, with a much greater benefit likely experienced over time.

male subjects with BPH [2] = details: cited from earlier work
men with LUTS and BPH [3] = tested on: men with LUTS and BPH; set-up: Creatinine Rise, endpoint events: unit not given here; details: entire MTOPS cohort, number of events per treatment group; cited from earlier work
men with LUTS and BPH [4] = experiment: MTOPS trial of finasteride and doxazosin, alone or together, in men with BPH; Cox/competing risks models; assay type: in vivo, human; details: for Hazard Ratio: multivariable Cox model; for risk of AUR and/or SI in treated patients / risk of symptom progression in treated patients: within 4 years, result in words
Source text: Medical Therapy of Prostatic Symptoms (MTOPS) is a clinical research study sponsored by the National Institutes of Health (NIH). The study tested whether the oral drugs finasteride (Proscar®) and doxazosin (Cardura®), alone or together, can further delay or prevent further prostate growth in men with BPH.
MTOPS is the largest and longest study to test whether the drugs can stop noncancerous prostate growth. Seventeen U.S. medical centers recruited […] men diagnosed with symptomatic BPH between December 1995 and March 1998. The study doctors continued to follow these men through November 2001 on a quarterly basis. In addition to the clinical progression of BPH, MTOPS included evaluations of prostate volume by ultrasound, prostate histopathobiology, quality of life and urodynamics. (Funding by NIDDK (UO1-DK-46472), 1992-2002; IND 43,564; http://www.bsc.gwu.edu/mtops/; McConnell et al., 2003).)
Herein described is the development of a nomogram similar to that shown in Examples 1 and 3 using data from the MTOPS study. In this double-blind, randomized, placebo-controlled trial, 3047 men with moderate-to-severe urinary symptoms and enlarged prostate glands were randomized to receive either 1) doxazosin+placebo; 2) finasteride+placebo; 3) doxazosin+finasteride; or 4) placebo+placebo for a minimum of four and a maximum of six years, with an average follow-up of five years. Complete data on outcomes were available for 3047 men and frozen sera was archived at baseline.
(§1) Intent-to-treat, competing risks methodology was employed to model the 3,047 men with LUTS and BPH randomized to the MTOPS trial, a 5 year, randomized, placebo-controlled study evaluating the efficacy and safety of BPH medical therapy. These men were characterized at baseline by a number of parameters, including patient age and race, AUA symptom index (AUA-SI), BPH Impact Index (BII), total prostate and TZ volume measured by ultrasound, total prostate specific antigen (PSA) level, maximum flow rate (Qmax) and post-void residual (PVR) urine volume. Cox proportional hazards regression was used to relate these baseline variables to their future probability of AUR/SI within 4 years. The nomogram was internally validated with bootstrapping to assess its discrimination and calibration. Discrimination was quantified as the concordance index (CI).
as §1, with “used” for “employed”, “(Qmax),” for “(Qmax)”, “reaching a symptom progression endpoint” for “AUR/SI”
Table 13 provides P values for a series of predictors, including BPSA levels, in a multivariate competing risks model for AUR and/or SI. BPSA is a novel serum marker for BPH, and independently predicts the risk of AUR and/or surgery in men with BPH. Thus, nomogram tools that incorporate BPSA levels may improve the ability to manage patients with BPH.

[5] = tested on: men with moderate-to-severe urinary symptoms and enlarged prostate glands; details: PLESS, 5 mg finasteride, four years; cited from earlier work
[6] = dutasteride 0.5 mg/day vs placebo, over 24 months
[7] = AUR/SI within 4 years, intent-to-treat, competing risks
[8] = symptom progression (4-point rise in AUA-SI) within 4 years

| Structure (SMILES) | AUA Rise, endpoint events (men with LUTS and BPH [3]) | BPH Invasive Therapy, events (men with LUTS and BPH [3]) | Creatinine Rise, endpoint events (men with LUTS and BPH [3]) | Incontinence, endpoint events (men with LUTS and BPH [3]) | Retention, endpoint events (men with LUTS and BPH [3]) | Total endpoint events (men with LUTS and BPH [3]) | UTI/urosepsis, endpoint events (men with LUTS and BPH [3]) | Hazard Ratio (men with LUTS and BPH [4]; [7]) | Hazard Ratio (men with LUTS and BPH [4]; [8]) | risk of AUR and/or SI in treated patients (men with LUTS and BPH [4]) | risk of symptom progression in treated patients (men with LUTS and BPH [4]) | further results |
| --- | --- | --- | --- | --- | --- | --- | --- | --- | --- | --- | --- | --- |
| C[C@]12C=CC(=O)N[C@@H]1CC[C@@H]1[C@@H]2CC[C@]2(C)[C@@H](C(=O)Nc3cc(C(F)(F)F)ccc3C(F)(F)F)CC[C@@H]12 [dutasteride] | – | – | – | – | – | – | – | – | – | – | – | relative risk reduction across the entire range of total points (male subjects with BPH [1]; 2-year AUR/SI nomogram): 50%; Hazard Ratio (95% CIs) (male subjects with BPH [1]; full multivariate Cox model, AUR or surgical intervention within 2 years, dutasteride vs placebo group): 0.50 (0.37, 0.66); absolute risk reduction (male subjects with BPH [1]; over two years, most severely affected patients (27% maximum risk)): 13 to 14%; reduction of nomogram total point score (male subjects with BPH [1]; use of dutasteride versus placebo, 2-year AUR/SI nomogram): 20 to 25 points; relative risk reduction of AUR and/or surgical intervention (male subjects with BPH [1]; vs placebo, at endpoint): 50%; patients who had experienced AUR and/or surgical intervention at endpoint (male subjects with BPH [2]; at endpoint, 2-year studies): 3.5%; reduction in the need for BPH-related surgery (male subjects with BPH [2]; [6]): 48%; reduction in the risk of AUR (male subjects with BPH [2]; [6]): 57% |
| CC(C)(C)NC(=O)[C@H]1CC[C@H]2[C@@H]3CC[C@H]4NC(=O)C=C[C@]4(C)[C@H]3CC[C@]12C [finasteride] | 74 | 15 | 0 | 9 | 6 | 89 | 0 | 0.3506 | 0.6961 | reduced risk of AUR and/or SI | significantly reduced risk of symptom progression | incidence of BPH-related surgery [5]: 5%; incidence of precipitated AUR [5]: 2%; incidence of spontaneous AUR [5]: 1%; overall incidence of AUR [5]: 4% |
| COc1cc2nc(N3CCN(C(=O)C4COc5ccccc5O4)CC3)nc(N)c2cc1OC (stereo not shown) [doxazosin] | 59 | 41 | 0 | 11 | 13 | 85 | 2 | 0.7154 | 0.5278 | not | significantly reduced risk of symptom progression | – |
